The values that follow come from patent US20150132342A1, “NOVEL IMMUNE ACTIVATORS: SUBSTITUTE 4-AMINOQUINAZOLINES” (The Regents of the University of California, priority 2013, published 2015).

In series [1] the test system is mBMDC. The experiment in a line: IL-6 induction in mouse bone marrow derived dendritic cells (wild type or gene deficient). It counts as cell-based. From the text: (§1) Animals. Seven to 9 week-old C57BL/6 (wild type, WT) and Cd14^−/− (C57BL/6 background) mice were purchased from the Jackson Laboratories (Bar Harbor, Mass.). Tlr4^−/− mice (C57BL/6 background) were a gift from Dr. Shizuo Akira (Osaka University, Japan) and were backcrossed for 10 generations onto the C57BL/6 background at University of California, San Diego (UCSD). MD-2^−/− mice (C57BL/6 background) were originally generated by Dr. K. Miyake (University of Tokyo, Tokyo, Japan) and were kindly provided by Dr. L. Hajjar (University of Washington, Seattle, Wash.). Human TLR4 transgenic mice on murine TLR4/MD-2 null C57BL/6 background were kindly provided by Dr. L. Hajjar.^3 All animal experiments were approved by the UCSD Institutional Animal Care and Use Committee.
In vitro cytokine induction in bone marrow derived dendritic cells (BMDC) and macrophages (BMDM). BMDC or BMDM were prepared from C57BL/6 mice as described.^4 BMDC or BMDM (10^5 cells per well) were plated in 96-well plates in 200 μl complete RPMI1640 (Omega Scientific, Tarzana, Calif.) supplemented with 10% fetal calf serum (Sigma Aldrich), 100 U/mL penicillin and 100 μg/mL streptomycin (Life Technologies). The cells were incubated with graded concentrations of the compounds for 18 h at 37° C., 5% CO2. After 18 h incubation, the cell culture supernatants were collected. LPS (100 ng/mL, L2654, E coli; B6, Sigma) or MPLA (1 μg/mL synthetic MPLA, Invivogen) were used as positive controls. The levels of IL-6 or IP-10 in the culture supernatants were determined by ELISA (BD Biosciences, La Jolla, Calif.).^5 Finally, all levels of cytokine release were normalized to those of LPSstimulation within each experiment, set at 100.

In the next series the test system is mouse BMDC. As to the kind of experiment: MTT viability of mouse BMDC. Format: cell-based. The conditions noted are these: 10 μM, 18 h incubation.
The next series has as its system HepG2 cells. As to the kind of experiment: MTT assay in HepG2 cells. Format: cell-based. The conditions noted are these: compounds tested at 10 μM; normalized with OD570-650 of vehicle treatment; in % (unit assumed). In general terms: Formazan colour is commonly taken as a measure of viable cells.
The next series has as its system human PBMC. The experiment in a line: CD80 and CD83 expression in CD11c+ HLA-DR+ human PBMC (flow cytometry). It counts as cell-based. The settings on record: 5 μM overnight; CD11c+HLA-DR+ gated population. As for the experimental part: (§2) FIG. 2. Compound 1a induces type I IFN and expression of co-stimulatory molecules. A) Human PBMC were incubated with compound 1a (10 μM), LPS (10 ng/mL), or vehicle overnight. The release of type I IFN in the culture supernatants was measured by luciferase release in L929-ISRE reporter cells. Data shown are mean±SEM of triplicates. B) Compound 1a- or vehicle-treated wild type or Tlr4^−/−mBMDC were stained for CD11c and either CD40, CD80, or CD86. The expression levels of CD40, CD80, or CD86 were evaluated in the gated CD11c^+ population. DMSO 0.5% served as the vehicle control. C) Human PBMC were incubated with compound 1a (5 μM) overnight. CD80 and CD83 expression in gated CD11c^+ HLA-DR^+ population was analyzed by flow cytometer. Data are representative of two independent experiments showing similar results.
(§3) To evaluate whether treatment of DCs with this compound can induce maturation in these cells, mBMDC prepared from wild type or TLR4 deficient mice were exposed to compound 1a and then assayed for expression of co-stimulatory molecules CD40, CD80, and CD86 in the CD11c+ population (FIG. 2B). […] Induction of co-stimulatory molecules by compound 1a was also confirmed in human PBMC.

The next series concerns the target T1, human TLR4/MD-2 (Homo sapiens, UniProt O00206+Q9Y6Y9).
T1 construct: expressed in transfected cells; host or cells: bone marrow derived macrophages of human TLR4 transgenic mice on a murine TLR4/MD-2 null C57BL/6 background (gift of Dr. L. Hajjar)
The experiment in a line: BMDM from transgenic mice expressing human TLR4/MD-2 (IL-6, IP-10). It counts as cell-based. The conditions noted are these: BMDM from human TLR4/MD-2 transgenic mice deficient for murine TLR4/MD-2.
Text: as §1
In vitro cytokine induction in bone marrow derived dendritic cells (BMDC) and macrophages (BMDM). […] The levels of IL-6 or IP-10 in the culture supernatants were determined by ELISA (BD Biosciences, La Jolla, Calif.).^5 Finally, all levels of cytokine release were normalized to those of LPSstimulation within each experiment, set at 100.

For series [2], the system named is mBMDC. The experiment in a line: Co-stimulatory molecule expression in CD11c+ mBMDC (flow cytometry). The settings on record: CD11c+ population. Format: cell-based, mouse. Here is the method: as §2, §3
Background: Flow cytometry measures light scatter and fluorescence of single cells or particles in a stream.

Series [3] relates to human TLRs (TLR2, TLR3, TLR4/MD-2/CD14, TLR5, TLR7, TLR8 or TLR9). The experiment in a line: Human TLR-transfected HEK293 NF-κB SEAP reporter cell panel. It counts as cell-based. The conditions noted are these: 10 μM, 20-24 h. As for the experimental part: To identify the target receptor, we used HEK293 cells stably transfected with the following human TLRs (TLR2, TLR3, TLR4/MD-2/CD14, TLR5, TLR7, TLR8 or TLR9) along with an NF-κB activation reporter producing Secreted Alkaline Phosphatase (SEAP, FIG. 1A). To further confirm that TLR4 was indeed the receptor, compound 1a was assayed for IL-6 production in mBMDCs from wild type and TLR4 deficient mice (FIG. 1B). […] TLR4 signals through two distinct pathways, leading respectively to NF-κB dependent cytokines and type I interferon (IFN) production. Several naturally occurring TLR4 ligands and MPLA have been reported to require CD14 to activate the IFN regulatory pathway. The hTLR4 reporter cell line (FIG. 1A) also overexpresses hMD-2 and hCD14, which are TLR4 accessory proteins.
In vitro assays using TLR reporter cell lines. Murine or humanTLR4 HEK Blue™ cells (Invivogen, 2.5×10^4 cells per well of a 96 well plate), or NF-κB/SEAPorter™ HEK 293 cells (Imgenex, San Diego, Calif.) for human TLR2, TLR3, TLR5, TLR7, TLR8, or TLR9 (5×10^4 cells per well of 96 well plate) were incubated with graded doses of the test compound. […] Secreted alkaline phosphatase (SEAP) activity in the supernatants was determined by a colorimetric assay, using either the SEAPorter Assay Kit (Imgenex, San Diego, Calif.), with absorbance read at 405 nm, or QuantiBlue (Invivogen), with absorbance read at 630 nm. […]

T1 sequence (O00206 24-839): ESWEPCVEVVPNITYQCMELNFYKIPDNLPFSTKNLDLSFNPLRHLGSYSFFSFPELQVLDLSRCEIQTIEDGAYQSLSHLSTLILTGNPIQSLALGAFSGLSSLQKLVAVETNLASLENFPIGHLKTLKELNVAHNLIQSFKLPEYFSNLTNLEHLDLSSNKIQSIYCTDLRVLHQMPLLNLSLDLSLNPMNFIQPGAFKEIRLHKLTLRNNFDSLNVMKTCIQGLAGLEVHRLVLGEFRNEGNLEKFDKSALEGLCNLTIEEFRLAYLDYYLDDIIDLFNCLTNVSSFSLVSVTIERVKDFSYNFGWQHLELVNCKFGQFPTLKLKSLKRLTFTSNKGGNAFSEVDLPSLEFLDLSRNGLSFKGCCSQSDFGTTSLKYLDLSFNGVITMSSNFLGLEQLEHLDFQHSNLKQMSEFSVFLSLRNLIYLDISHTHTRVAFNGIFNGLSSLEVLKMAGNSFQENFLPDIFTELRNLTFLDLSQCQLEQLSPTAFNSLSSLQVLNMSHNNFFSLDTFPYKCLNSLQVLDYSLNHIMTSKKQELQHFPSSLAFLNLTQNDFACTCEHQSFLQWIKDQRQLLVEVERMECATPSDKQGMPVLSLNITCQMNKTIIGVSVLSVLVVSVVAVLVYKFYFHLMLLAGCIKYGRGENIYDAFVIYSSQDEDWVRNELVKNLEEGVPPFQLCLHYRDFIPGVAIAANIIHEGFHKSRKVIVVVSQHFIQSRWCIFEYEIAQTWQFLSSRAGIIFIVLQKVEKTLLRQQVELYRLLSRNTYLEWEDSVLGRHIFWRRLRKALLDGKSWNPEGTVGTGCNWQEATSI
T1 sequence (Q9Y6Y9 19-160): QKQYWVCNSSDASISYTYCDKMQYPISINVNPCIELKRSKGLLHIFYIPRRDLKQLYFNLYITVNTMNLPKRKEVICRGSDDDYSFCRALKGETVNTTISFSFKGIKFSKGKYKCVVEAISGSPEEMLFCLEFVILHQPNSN

For the compound `CCOC(=O)c1nc(Nc2cc(Oc3ccccc3)cc([N+](=O)[O-])c2)c2ccccc2n1` [Compound 1a, Ethyl 4-((3-nitro-5-phenoxyphenyl)amino)quinazoline-2-carboxylate], the “Dependence of IL-6 production on CD14 and MD-2” value in the series with mBMDC [1] (10 μM, mBMDC genetically deficient for CD14 or MD-2) is on record as “not to be dependent on CD14, but dependent on MD-2”. In addition, the “IL-6 secretion induced in mBMDC on genetic disruption of TLR4” value in the series on mBMDC [1] (10 μM, wild type vs TLR4 deficient mice) is reported as “completely abrogated”. Also, the “Concentration inducing detectable levels of IL-6” value in the series with mBMDC [1] (mBMDC, graded concentrations, compared with IL-8 in hPBMC) is reported as “higher concentrations were required”. The “Viability by MTT assay” value with mouse BMDC was determined as 117±2.6%. Further, the “HepG2 MT” value in the series on HepG2 cells came out at 93.5. Further, in the series on human PBMC, the “Expression of CD80 and CD83” value is “increased expression of CD80 and CD83”. Moreover, the “Activation of transgenic human TLR4/MD-2 complex relative to mouse TLR4/MD-2” value on human TLR4/MD-2 was “to a greater extent”. For the same compound, the “Expression of co-stimulatory molecules CD40, CD80, CD86” value is listed as “not in the TLR4 deficient cells” in the series on mBMDC [2] (TLR4 deficient mBMDC) and “increased” in the series on mBMDC [2] (wild type mBMDC). In series [3], the “NF-κB activation (SEAP) across TLR transfected cells” value was “only those expressing TLR4/MD-2/CD14 responded”.
